Values after ≈ are worked out from the molar mass of the structure shown. Like-named read-outs stand apart in the source and are kept apart here.

Assay [1] deals with S. aureus ATCC13709. Nature of the assay: In vitro antibacterial activity (MIC assay), broth microdilution. In kind it is cell-based. Particulars: Staphylococcus aureus, ATCC13709; read-out: S. aureus ATCC13709 MIC. In outline: (§1)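 Bacteria at roughly 5×10^5 CFU/mL final were grown 16–24 h at 35° C in wells holding 2-fold serial dilutions (11 points) of compound prepared in 100% DMSO, following NCCLS M7-A5. MIC, in μg/mL, is the concentration that stops visible growth relative to untreated wells.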

Assay [2] deals with E. coli KL-16 (GSC strain 4245). The description is as above. In kind it is cell-based. Particulars: Escherichia coli. In outline: as §1
The test system of assay [3] is S. pneumoniae ATCC49619. The assay is described as above. Particulars: Streptococcus pneumoniae, ATCC49619; read-out: S. pneumoniae ATCC49619 MIC. It counts as cell-based. The method in brief: as §1
In assay [4] the target is T1, E. coli DNA gyrase (Escherichia coli, UniProt P0AES4+P0AES6).
T1 construct: purchased John Innes Enterprises Ltd. (John Innes Centre, UK)
Kind of assay: DNA gyrase inhibition assay (supercoiling). In kind it is biochemical. The protocol:
Inhibition of the supercoiling activity of E. coli DNA gyrase was determined using enzymes, buffers and substrates received from John Innes Enterprises Ltd. (John Innes Centre, UK). The reactions were performed according to the manufacturer's directions, with the following modifications.
DNA supercoiling reactions were carried out in a total reaction volume of 20 μL containing 250 ng of relaxed pBR322, 35 mM Tris-HCl (pH 7.5), 24 mM KCl, 4 mM MgCl2, 2 mM dithiothreitol, 1.8 mM spermidine, 1 mM ATP, 6.5% glycerol and 100 μg/mL albumin. Compounds diluted in 10% DMSO were added to the reaction mixture to reach a final concentration of 0.5% DMSO. Enzyme was diluted to […] in a solution of 50 mM Tris-HCl (pH 7.5), 100 mM KCl, 2 mM dithiothreitol, 1 mM EDTA, and 50% glycerol. Diluted enzyme (0.2 unit) was added to each reaction.
The reactions were incubated at 37° C. for 30 min. The reactions were then cooled to 0° C., followed by addition of 3 μL of 40% glycerol, 100 mM Tris-HCl (pH 7.5), 50 mM EDTA, 0.5% SDS and 0.1% bromophenol blue. Samples were separated on 1.0% agarose gels. Gels were stained with Ethidium bromide and photographed with a Stratagene Eagle Eye II.

The mark [5] stands for this setting: E. coli DNA gyrase supercoiling, visual inspection of gels, read-out: DNA Gyrase IC50 (converted).

T1 sequence (P0AES4 whole entry, one chain of several): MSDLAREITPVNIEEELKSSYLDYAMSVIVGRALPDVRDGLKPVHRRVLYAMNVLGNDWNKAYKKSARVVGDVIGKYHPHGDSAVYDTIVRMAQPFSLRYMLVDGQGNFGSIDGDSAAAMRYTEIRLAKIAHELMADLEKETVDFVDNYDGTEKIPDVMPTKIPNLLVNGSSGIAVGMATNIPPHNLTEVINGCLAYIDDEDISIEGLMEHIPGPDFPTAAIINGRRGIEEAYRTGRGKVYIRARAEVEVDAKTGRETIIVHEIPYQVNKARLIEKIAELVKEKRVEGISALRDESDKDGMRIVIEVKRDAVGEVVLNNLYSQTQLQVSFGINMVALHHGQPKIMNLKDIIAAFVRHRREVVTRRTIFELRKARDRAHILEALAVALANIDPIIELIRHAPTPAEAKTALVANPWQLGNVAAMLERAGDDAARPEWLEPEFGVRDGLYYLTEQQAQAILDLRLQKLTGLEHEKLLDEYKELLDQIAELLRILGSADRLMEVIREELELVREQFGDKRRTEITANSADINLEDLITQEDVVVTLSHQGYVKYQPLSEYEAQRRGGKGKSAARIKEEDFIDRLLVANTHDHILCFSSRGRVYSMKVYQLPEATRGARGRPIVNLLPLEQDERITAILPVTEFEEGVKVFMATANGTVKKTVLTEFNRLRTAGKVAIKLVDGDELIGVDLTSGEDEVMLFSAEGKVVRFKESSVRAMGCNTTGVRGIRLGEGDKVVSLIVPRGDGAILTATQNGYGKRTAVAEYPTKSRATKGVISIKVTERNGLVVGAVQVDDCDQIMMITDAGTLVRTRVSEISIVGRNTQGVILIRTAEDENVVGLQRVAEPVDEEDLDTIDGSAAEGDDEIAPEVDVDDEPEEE

Broadly, the MIC is the lowest concentration found to suppress growth. The IC50 is the concentration needed to halve the response being measured. `COc1ccc2nccc(-n3cc4c(n3)CCC(NC(=O)c3cc5cc(C)ccc5[nH]3)C4)c2c1` (centres unmarked) [Example 75, 5-Methyl-1H-indole-2-carboxylic acid [2-(6-methoxy-quinolin-4-yl)-4,5,6,7-tetrahydro-2H-indazol-5-yl]-amide]: the MIC is 4 µg/mL (≈ 8.86 µM) in assay [1], above 128 µg/mL in assay [2] and 16 µg/mL (≈ 35.4 µM) in assay [3]. Also, the half-maximal inhibitory concentration (IC50) in assay [4] (setting [5]) was above 35.4 µM.

For the molecule `COc1ccc2nccc(-n3cc4c(n3)CCC(NC(=O)c3cc5cc(Cl)ccc5[nH]3)C4)c2c1` (centres unmarked) [Example 77, 5-Chloro-1H-indole-2-carboxylic acid [2-(6-methoxy-quinolin-4-yl)-4,5,6,7-tetrahydro-2H-indazol-5-yl]-amide], the MIC in assay [1] is 2 µg/mL (≈ 4.24 µM); in assay [2] it was above 128 µg/mL; in assay [3], 16 µg/mL (≈ 33.9 µM). Further, the IC50 in assay [4] (setting [5]) was above 33.9 µM.

For `COc1ccc2nccc(-n3cc4c(n3)CCC(NC(=O)c3cccnc3Cl)C4)c2c1` (centres unmarked) [Example 78, 2-Chloro-N-[2-(6-methoxy-quinolin-4-yl)-4,5,6,7-tetrahydro-2H-indazol-5-yl]-nicotinamide], the values for the minimum inhibitory concentration (MIC) in assay [1], in assay [2] and in assay [3] were 16 µg/mL (≈ 36.9 µM), above 128 µg/mL and above 128 µg/mL, respectively. In addition, the IC50 in assay [4] (setting [5]) was above 36.9 µM.

For the molecule `COc1ccc2nccc(-n3cc4c(n3)CCC(NC(=O)c3ccc5c(c3)OCCN5C)C4)c2c1` (centres unmarked) [Example 79, 4-Methyl-3,4-dihydro-2H-benzo[1,4]oxazine-7-carboxylic acid [2-(6-methoxy-quinolin-4-yl)-4,5,6,7-tetrahydro-2H-indazol-5-yl]-amide], the MIC was 4 µg/mL (≈ 8.52 µM) in assay [1], above 128 µg/mL in assay [2] and 8 µg/mL (≈ 17 µM) in assay [3]. In assay [4] (setting [5]), the IC50 is above 34.1 µM.

As to `CCN(CC)c1ccc(CNC2CCc3nn(-c4ccnc5ccc(OC)nc45)cc3C2)cc1` (centres unmarked) [Example 85, (4-Diethylamino-benzyl)-[2-(6-methoxy-[1,5]naphthyridin-4-yl)-4,5,6,7-tetrahydro-2H-indazol-5-yl]-amine], the values for the MIC in assay [1], in assay [2] and in assay [3] were 8 µg/mL (≈ 17.5 µM), 64 µg/mL (≈ 140 µM) and 8 µg/mL (≈ 17.5 µM), respectively. In addition, the half-inhibitory concentration (IC50) in assay [4] (setting [5]) was 4.38 µM.

Regarding `COc1ccc2nccc(-n3cc4c(n3)CCC(NCc3ccc(N5CCCCC5)cc3)C4)c2n1` (centres unmarked) [Example 86, [2-(6-Methoxy-[1,5]naphthyridin-4-yl)-4,5,6,7-tetrahydro-2H-indazol-5-yl]-(4-piperidin-1-yl-benzyl)-amine], the MIC in assay [1] is 4 µg/mL (≈ 8.54 µM); in assay [2], above 128 µg/mL; in assay [3], 4 µg/mL (≈ 8.54 µM). Further, the IC50 in assay [4] (setting [5]) was 4.27 µM.

For the molecule `COc1ccc2nccc(-n3cc4c(n3)CCC(NCc3ccc(N5CCCC5)cc3)C4)c2n1` (centres unmarked) [Example 87, [2-(6-Methoxy-[1,5]naphthyridin-4-yl)-4,5,6,7-tetrahydro-2H-indazol-5-yl]-(4-pyrrolidin-1-yl-benzyl)-amine], the results for the minimal inhibitory concentration (MIC) in assay [1], in assay [2] and in assay [3] were 2 µg/mL (≈ 4.4 µM), 64 µg/mL (≈ 141 µM) and 8 µg/mL (≈ 17.6 µM), respectively. The IC50 in assay [4] (setting [5]) was 4.4 µM.

Regarding `COc1ccc2nccc(-n3cc4c(n3)CCC(NC(=O)/C=C/c3ccc(Cl)cc3)C4)c2n1` (centres unmarked) [Example 90, 3-(4-Chloro-phenyl)-N-[2-(6-methoxy-[1,5]naphthyridin-4-yl)-4,5,6,7-tetrahydro-2H-indazol-5-yl]-acrylamide], the MIC in assay [1] was 0.5 µg/mL (≈ 1.09 µM); in assay [2], above 128 µg/mL; in assay [3], above 128 µg/mL. The IC50 in assay [4] (setting [5]) is above 34.8 µM.

As to `COc1ccc2nccc(-n3cc4c(n3)CCC(NC(=O)/C=C/c3cc(F)ccc3C(F)(F)F)C4)c2n1` (centres unmarked) [Example 91, 3-(5-Fluoro-2-trifluoromethyl-phenyl)-N-[2-(6-methoxy-[1,5]naphthyridin-4-yl)-4,5,6,7-tetrahydro-2H-indazol-5-yl]-acrylamide], the minimal inhibitory concentration (MIC) in assay [1] is 4 µg/mL (≈ 7.82 µM); in assay [2], above 128 µg/mL; in assay [3], above 128 µg/mL. In assay [4] (setting [5]), the IC50 is above 31.3 µM.

In the case of `COc1ccc2nccc(-n3cc4c(n3)CCC(NC(=O)/C=C/c3ccc(Cl)c(Cl)c3)C4)c2n1` (centres unmarked) [Example 92, 3-(3,4-Dichloro-phenyl)-N-[2-(6-methoxy-[1,5]naphthyridin-4-yl)-4,5,6,7-tetrahydro-2H-indazol-5-yl]-acrylamide], the results for the MIC in assay [1], in assay [2] and in assay [3] were 0.5 µg/mL (≈ 1.01 µM), above 128 µg/mL and above 128 µg/mL, respectively. Further, the IC50 in assay [4] (setting [5]) was above 32.4 µM.

`COc1ccc2nccc(-n3cc4c(n3)CCC(NC(=O)/C=C/c3ccc(F)c(F)c3)C4)c2n1` (centres unmarked) [Example 93, 3-(3,4-Difluoro-phenyl)-N-[2-(6-methoxy-[1,5]naphthyridin-4-yl)-4,5,6,7-tetrahydro-2H-indazol-5-yl]-acrylamide]: the MIC in assay [1] is 0.25 µg/mL (≈ 0.542 µM); in assay [2], above 128 µg/mL; in assay [3], 16 µg/mL (≈ 34.7 µM). The IC50 in assay [4] (setting [5]) was above 34.7 µM.

As to `COc1ccc2nccc(-n3cc4c(n3)CCC(NC(=O)/C=C/c3ccccn3)C4)c2n1` (centres unmarked) [Example 95, N-[2-(6-Methoxy-[1,5]naphthyridin-4-yl)-4,5,6,7-tetrahydro-2H-indazol-5-yl]-3-pyridin-2-yl-acrylamide], the MIC is 2 µg/mL (≈ 4.69 µM) in assay [1], above 128 µg/mL in assay [2] and 8 µg/mL (≈ 18.8 µM) in assay [3]. Moreover, the IC50 in assay [4] (setting [5]) is above 37.5 µM.

With `O=C1CSc2ccc(C(=O)NC3CCc4c(cnn4-c4cc(C(F)(F)F)nc5c(C(F)(F)F)cccc45)C3)cc2N1` (centres unmarked) [Example 96, 3-Oxo-3,4-dihydro-2H-benzo[1,4]thiazine-6-carboxylic acid [1-(2,8-bis-trifluoromethyl-quinolin-4-yl)-4,5,6,7-tetrahydro-1H-indazol-5-yl]-amide], the MIC came to 8 µg/mL (≈ 13.5 µM) in assay [1], 64 µg/mL (≈ 108 µM) in assay [2] and 32 µg/mL (≈ 54.1 µM) in assay [3]. In assay [4] (setting [5]), the IC50 is above 6.76 µM.

`O=C1CSc2ccc(C(=O)NC3CCc4c(cnn4-c4cc(C(F)(F)F)nc5ccccc45)C3)cc2N1` (centres unmarked) [Example 97, 3-Oxo-3,4-dihydro-2H-benzo[1,4]thiazine-6-carboxylic acid [1-(2-trifluoromethyl-quinolin-4-yl)-4,5,6,7-tetrahydro-1H-indazol-5-yl]-amide]: the MIC in assay [1], in assay [2] and in assay [3] was above 128 µg/mL each time. The IC50 in assay [4] (setting [5]) is above 30.6 µM.

Regarding `COc1ccc2nccc(-n3cc4c(n3)CCC(NCc3cc(F)c5c(c3)OCCO5)C4)c2c1` (centres unmarked) [Example 100, (8-Fluoro-2,3-dihydro-benzo[1,4]dioxin-6-ylmethyl)-[2-(6-methoxy-quinolin-4-yl)-4,5,6,7-tetrahydro-2H-indazol-5-yl]-amine], the minimum inhibitory concentration (MIC) in assay [1] is 0.25 µg/mL (≈ 0.543 µM); in assay [2] it was 16 µg/mL (≈ 34.7 µM); in assay [3], 0.5 µg/mL (≈ 1.09 µM). Further, the IC50 in assay [4] (setting [5]) is 1.09 µM.

`COc1ccc2nccc(-n3cc4c(n3)CCC(NCc3cc(F)c5c(c3)OCCO5)C4)c2n1` (centres unmarked) [Example 101, (8-Fluoro-2,3-dihydro-benzo[1,4]dioxin-6-ylmethyl)-[2-(6-methoxy-[1,5]naphthyridin-4-yl)-4,5,6,7-tetrahydro-2H-indazol-5-yl]-amine]: the MIC in assay [1] worked out at 0.125 µg/mL (≈ 0.271 µM); in assay [2] it was 4 µg/mL (≈ 8.67 µM); in assay [3], 1 µg/mL (≈ 2.17 µM). Moreover, in assay [4] (setting [5]), the concentration for half-maximal inhibition (IC50) was 0.542 µM.

For the molecule `COc1ccc2nccc(-n3cc4c(n3)CCC(NCc3cc5c(cc3Cl)OCCO5)C4)c2n1` (centres unmarked) [Example 104, (7-Chloro-2,3-dihydro-benzo[1,4]dioxin-6-ylmethyl)-[2-(6-methoxy-[1,5]naphthyridin-4-yl)-4,5,6,7-tetrahydro-2H-indazol-5-yl]-amine], the MIC worked out at 0.125 µg/mL (≈ 0.262 µM) in assay [1], 8 µg/mL (≈ 16.7 µM) in assay [2] and 1 µg/mL (≈ 2.09 µM) in assay [3]. The IC50 in assay [4] (setting [5]) is 1.05 µM.

As to `COc1ccc2nccc(-n3cc4c(n3)CCC(NCc3cc5c(cc3Cl)OCO5)C4)c2n1` (centres unmarked) [Example 105, N-((6-chlorobenzo[d][1,3]dioxol-5-yl)methyl)-2-(6-methoxy-1,5-naphthyridin-4-yl)-4,5,6,7-tetrahydro-2H-indazol-5-amine], the MIC in assay [1] is 0.5 µg/mL (≈ 1.08 µM); in assay [2], above 128 µg/mL; in assay [3], 4 µg/mL (≈ 8.62 µM). For the same molecule, the half-inhibitory concentration (IC50) in assay [4] (setting [5]) is 4.31 µM.

With `COc1ccc2nccc(-n3cc4c(n3)CCC(NCc3cc5c(cc3F)SCCN5)C4)c2c1` (centres unmarked) [Example 106], the MIC in assay [1] was determined as 0.5 µg/mL (≈ 1.05 µM); in assay [2] it was 8 µg/mL (≈ 16.8 µM); in assay [3], 1 µg/mL (≈ 2.1 µM). Besides, the IC50 in assay [4] was 4.21 µM.

Regarding `COc1ccc2nccc(-n3cc4c(n3)CCC(NC(=O)c3ccc(C)c([N+](=O)[O-])c3)C4)c2c1` (centres unmarked) [Example 111, N-[2-(6-Methoxy-quinolin-4-yl)-4,5,6,7-tetrahydro-2H-indazol-5-yl]-4-methyl-3-nitro-benzamide], the MIC was 0.25 µg/mL (≈ 0.546 µM) in assay [1], above 128 µg/mL in assay [2] and 4 µg/mL (≈ 8.74 µM) in assay [3]. For the same molecule, the half-maximal inhibitory concentration (IC50) in assay [4] (setting [5]) is above 35 µM.

For the origin of these results see patent US8242275B2, “Bicyclic pyrazole compounds as antibacterial agents” (Janssen Pharmaceutica NV, priority 2005, dated 2012).
